What was measured:
[1] = populations of Southeast Asians consuming 70 mg/day of genistein; cited from earlier work
[2] = test system: satellite cells derived from mouse gastrocnemius and soleus muscles; test: Satellite cell proliferation in secondary satellite cell cultures (cell count per ocular grid); format: cell-based; conditions: genistein added to culture medium as in Example 1, on day 1 or day 2; control 0.05% DMSO; P<0.0001 one day after, P<0.00001 at days 2-5 after addition; FIG. 2
Source text: Method: To analyze satellite cell proliferation secondary satellite cell cultures derived from mouse gastrocnemius and soleus muscles prepared as in Example 1 were fed fresh medium every day. This generally accepted procedure prolongs proliferation and inhibits differentiation and fusion. Two experimental groups were formed by adding genistein to the culture medium, as in Example 1. […] Living cultures were placed on the stage of a phase-contrast microscope and the number of cells contained within an ocular grid was counted at 100× to 200× total magnification. This cell-counting procedure was performed daily through the sixth day of culture.

[3] = test system: mouse primary satellite cells; test: Fusion of mouse primary satellite cells to myofibers in culture (fusion index); format: cell-based; conditions: genistein in culture medium, added on first, second or third day of culture; control 0.05% DMSO; day 3 P<0.002, day 5 P<0.0001 (Student's t-test); FIG. 1
Method: Method: Thigh muscle tissue was removed from post-natal day 20-30 mouse pups and the tissue reduced to single cells by a method based largely on a protocol by DiMario and Strohman (DiMario, J. and Strohman, R. C.; 1988). Gastrocnemius and soleus muscles were dissected free of surrounding tissue and finely minced with scissors. The minced tissue was mixed with 0.10% crude collagenase and incubated at 37° C. for 30 minutes with occasional trituration through the bore of a 5 ml glass pipette to break up tissue pieces. The collagenase-tissue slurry was centrifuged briefly to pellet the tissue pieces, muscle fibers, and cells. […] The number of cells was determined and aliquots were appropriately diluted with culture medium so that a known number of satellite cells (80,000) could be added to additional 35 mm collagen-coated dishes for analysis of cell proliferation and fusion. […]
Fusion of satellite cells to form muscle fibers is generally accomplished by removing the source of growth factors in the culture medium. […] As fusion of satellite cells to form myofibers began, the number of nuclei contained within mononucleated cells, primarily satellite cells, and those within myofibers were counted differentially at a magnification of 200×. […]

O=c1c(-c2ccc(O)cc2)coc2cc(O)cc(O)c12 [genistein, 5,7-dihydroxy-3-(4-hydroxyphenyl)-4H-1-benzopyran-4-one]
ill effects on dietary consumption [1]: without obvious ill effects
division of satellite cells (number of cells per reticle-grid vs control cultures) [2]: eliminated the division of satellite cells
fusion of satellite cells (fusion index vs control cultures) [3]: inhibited the fusion of satellite cells
